Data: the supplement of paper PMC10307832

Key:
Assay in all cases: relative viability (nuclei count vs DMSO), 5 days (fraction); higher = more cells survive
CAL-12T = test system: CAL-12T
Procedure, shortened: (§1)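 After 5 days of treatment, lung cancer cells in 1536-well plates were fixed and stained in a single step (final 0.05% Triton X-100, 1% formaldehyde, 1 ug/ml Hoechst) and their nuclei counted on 4× images. Treatment had been applied by pin tool the day after seeding as one drug alone or as a fixed anchor-drug dose with five library-drug doses (not always all listed) in √10 steps. Relative viability is the nuclei count of treated wells divided by that of vehicle wells, and values are medians of duplicate plates.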

COR-L 105 = test system: COR-L 105
Procedure, shortened: as §1

ChaGo-K-1 = test system: ChaGo-K-1
Procedure, shortened: as §1

EMC-BAC-2 = test system: EMC-BAC-2
Procedure, shortened: as §1

EPLC-272H = test system: EPLC-272H
Procedure, shortened: as §1

HCC-15 = test system: HCC-15
Procedure, shortened: as §1

HCC-78 = test system: HCC-78
Procedure, shortened: as §1

HOP-62 = test system: HOP-62
Procedure, shortened: as §1

LXF-289 = test system: LXF-289
Procedure, shortened: as §1

NCI-H1666 = test system: NCI-H1666
Procedure, shortened: as §1

NCI-H1755 = test system: NCI-H1755
Procedure, shortened: as §1

NCI-H1915 = test system: NCI-H1915
Procedure, shortened: as §1

NCI-H1975 = test system: NCI-H1975
Procedure, shortened: as §1

NCI-H1993 = test system: NCI-H1993
Procedure, shortened: as §1

NCI-H2023 = test system: NCI-H2023
Procedure, shortened: as §1

NCI-H2085 = test system: NCI-H2085
Procedure, shortened: as §1

NCI-H2126 = test system: NCI-H2126
Procedure, shortened: as §1

NCI-H3122 = test system: NCI-H3122
Procedure, shortened: as §1

NCI-H322M = test system: NCI-H322M
Procedure, shortened: as §1

NCI-H358 = test system: NCI-H358
Procedure, shortened: as §1

NCI-H441 = test system: NCI-H441
Procedure, shortened: as §1

NCI-H522 = test system: NCI-H522
Procedure, shortened: as §1

UMC-11 = test system: UMC-11
Procedure, shortened: as §1

`COc1cc(N2CCC(C(N)=O)CC2)ccc1Nc1nc(N)c(Cl)c(Nc2ccccc2S(=O)(=O)C(C)C)n1` [HG-5-88-01] + Nc1nc2[nH]cc(CCc3ccc(C(=O)N[C@@H](CCC(=O)O)C(=O)O)cc3)c2c(=O)[nH]1 [Pemetrexed] (partner 0.2 µM) showed a relative viability (CAL-12T; first compound 0.04 µM) of 1.25, a relative viability (CAL-12T; first compound 0.1265 µM) of 1.14 and a relative viability (CAL-12T; first compound 0.4 µM) of 1.24. It also gave a relative viability (CAL-12T; first compound 1.265 µM) of 0.995, a relative viability (CAL-12T; first compound 4 µM) of 0.754 and a relative viability (COR-L 105; first compound 0.04 µM) of 1.02. The relative viability (COR-L 105; first compound 0.1265 µM) was 1.21, the relative viability (COR-L 105; first compound 0.4 µM) was 1.18 and the relative viability (COR-L 105; first compound 1.265 µM) was 0.989. For the same molecule, the relative viability (COR-L 105; first compound 4 µM) was 0.899, the relative viability (ChaGo-K-1; first compound 0.04 µM) was 0.262 and the relative viability (ChaGo-K-1; first compound 0.1265 µM) was 0.271. For the same molecule, the relative viability (ChaGo-K-1; first compound 0.4 µM) was 0.24, the relative viability (ChaGo-K-1; first compound 1.265 µM) was 0.266 and the relative viability (ChaGo-K-1; first compound 4 µM) was 0.258. For the same molecule, the relative viability (EMC-BAC-2; first compound 0.04 µM) was 0.416, the relative viability (EMC-BAC-2; first compound 0.1265 µM) was 0.432 and the relative viability (EMC-BAC-2; first compound 0.4 µM) was 0.385. The relative viability (EMC-BAC-2; first compound 1.265 µM) was 0.461, the relative viability (EMC-BAC-2; first compound 4 µM) was 0.477 and the relative viability (EPLC-272H; first compound 0.04 µM) was 0.341. It also gave a relative viability (EPLC-272H; first compound 0.1265 µM) of 0.262, a relative viability (EPLC-272H; first compound 0.4 µM) of 0.319 and a relative viability (EPLC-272H; first compound 1.265 µM) of 0.307. The relative viability (EPLC-272H; first compound 4 µM) was 0.0795, the relative viability (HCC-15; first compound 0.04 µM) was 0.209 and the relative viability (HCC-15; first compound 0.1265 µM) was 0.221. It also gave a relative viability (HCC-15; first compound 0.4 µM) of 0.213, a relative viability (HCC-15; first compound 1.265 µM) of 0.229 and a relative viability (HCC-15; first compound 4 µM) of 0.185. It also gave a relative viability (HCC-78; first compound 0.04 µM) of 0.824, a relative viability (HCC-78; first compound 0.1265 µM) of 0.814 and a relative viability (HCC-78; first compound 0.4 µM) of 0.884. For the same molecule, the relative viability (HCC-78; first compound 1.265 µM) was 0.849, the relative viability (HCC-78; first compound 4 µM) was 0.795 and the relative viability (HOP-62; first compound 0.04 µM) was 0.319. For the same molecule, the relative viability (HOP-62; first compound 0.1265 µM) was 0.297, the relative viability (HOP-62; first compound 0.4 µM) was 0.288 and the relative viability (HOP-62; first compound 1.265 µM) was 0.381. The relative viability (HOP-62; first compound 4 µM) was 0.341, the relative viability (LXF-289; first compound 0.04 µM) was 0.931 and the relative viability (LXF-289; first compound 0.1265 µM) was 0.933. The relative viability (LXF-289; first compound 0.4 µM) was 0.887, the relative viability (LXF-289; first compound 1.265 µM) was 0.93 and the relative viability (LXF-289; first compound 4 µM) was 0.926. For the same molecule, the relative viability (NCI-H1666; first compound 0.04 µM) was 0.893, the relative viability (NCI-H1666; first compound 0.1265 µM) was 0.762 and the relative viability (NCI-H1666; first compound 0.4 µM) was 0.828. The relative viability (NCI-H1666; first compound 1.265 µM) was 0.732, the relative viability (NCI-H1666; first compound 4 µM) was 0.592 and the relative viability (NCI-H1755; first compound 0.04 µM) was 0.446. It also gave a relative viability (NCI-H1755; first compound 0.1265 µM) of 0.54, a relative viability (NCI-H1755; first compound 0.4 µM) of 0.407 and a relative viability (NCI-H1755; first compound 1.265 µM) of 0.43. The relative viability (NCI-H1755; first compound 4 µM) was 0.447, the relative viability (NCI-H1915; first compound 0.04 µM) was 0.471 and the relative viability (NCI-H1915; first compound 0.1265 µM) was 0.5. The relative viability (NCI-H1915; first compound 0.4 µM) was 0.352, the relative viability (NCI-H1915; first compound 1.265 µM) was 0.541 and the relative viability (NCI-H1915; first compound 4 µM) was 0.441. The relative viability (NCI-H1975; first compound 0.04 µM) was 0.27, the relative viability (NCI-H1975; first compound 0.1265 µM) was 0.296 and the relative viability (NCI-H1975; first compound 0.4 µM) was 0.273. For the same molecule, the relative viability (NCI-H1975; first compound 1.265 µM) was 0.297, the relative viability (NCI-H1975; first compound 4 µM) was 0.203 and the relative viability (NCI-H1993; first compound 0.04 µM) was 0.56. It also gave a relative viability (NCI-H1993; first compound 0.1265 µM) of 0.577, a relative viability (NCI-H1993; first compound 0.4 µM) of 0.552 and a relative viability (NCI-H1993; first compound 4 µM) of 0.554. For the same molecule, the relative viability (NCI-H2023; first compound 0.04 µM) was 0.231, the relative viability (NCI-H2023; first compound 0.1265 µM) was 0.23 and the relative viability (NCI-H2023; first compound 0.4 µM) was 0.175. It also gave a relative viability (NCI-H2023; first compound 1.265 µM) of 0.165, a relative viability (NCI-H2023; first compound 4 µM) of 0.171 and a relative viability (NCI-H2085; first compound 0.04 µM) of 0.911. It also gave a relative viability (NCI-H2085; first compound 0.1265 µM) of 0.986, a relative viability (NCI-H2085; first compound 0.4 µM) of 0.864 and a relative viability (NCI-H2085; first compound 1.265 µM) of 0.861. The relative viability (NCI-H2085; first compound 4 µM) was 0.698, the relative viability (NCI-H2126; first compound 0.04 µM) was 0.644 and the relative viability (NCI-H2126; first compound 0.1265 µM) was 0.667. For the same molecule, the relative viability (NCI-H2126; first compound 0.4 µM) was 0.68, the relative viability (NCI-H2126; first compound 1.265 µM) was 0.641 and the relative viability (NCI-H2126; first compound 4 µM) was 0.452. It also gave a relative viability (NCI-H3122; first compound 0.04 µM) of 0.171, a relative viability (NCI-H3122; first compound 0.1265 µM) of 0.161 and a relative viability (NCI-H3122; first compound 0.4 µM) of 0.144. The relative viability (NCI-H3122; first compound 1.265 µM) was 0.157, the relative viability (NCI-H3122; first compound 4 µM) was 0.115 and the relative viability (NCI-H322M; first compound 0.04 µM) was 0.638. It also gave a relative viability (NCI-H322M; first compound 0.1265 µM) of 0.536, a relative viability (NCI-H322M; first compound 0.4 µM) of 0.607 and a relative viability (NCI-H322M; first compound 1.265 µM) of 0.55. It also gave a relative viability (NCI-H322M; first compound 4 µM) of 0.509, a relative viability (NCI-H358; first compound 0.04 µM) of 0.145 and a relative viability (NCI-H358; first compound 0.1265 µM) of 0.174. For the same molecule, the relative viability (NCI-H358; first compound 0.4 µM) was 0.162, the relative viability (NCI-H358; first compound 1.265 µM) was 0.132 and the relative viability (NCI-H358; first compound 4 µM) was 0.148. It also gave a relative viability (NCI-H441; first compound 0.04 µM) of 0.28, a relative viability (NCI-H441; first compound 0.1265 µM) of 0.279 and a relative viability (NCI-H441; first compound 0.4 µM) of 0.229. The relative viability (NCI-H441; first compound 1.265 µM) was 0.276, the relative viability (NCI-H441; first compound 4 µM) was 0.258 and the relative viability (NCI-H522; first compound 0.04 µM) was 0.967. For the same molecule, the relative viability (NCI-H522; first compound 0.1265 µM) was 0.969, the relative viability (NCI-H522; first compound 0.4 µM) was 1.01 and the relative viability (NCI-H522; first compound 1.265 µM) was 0.841. It also gave a relative viability (NCI-H522; first compound 4 µM) of 0.783, a relative viability (UMC-11; first compound 0.04 µM) of 0.797 and a relative viability (UMC-11; first compound 0.1265 µM) of 0.772. For the same molecule, the relative viability (UMC-11; first compound 0.4 µM) was 0.844, the relative viability (UMC-11; first compound 1.265 µM) was 0.827 and the relative viability (UMC-11; first compound 4 µM) was 0.789.
